Experiments:
[1] = target: T1, aurora-2 kinase (Homo sapiens, UniProt O14965); experiment: aurora-2 kinase inhibition assay (Kinase-Glo, ATP remaining); format: biochemical; conditions: Example 54, Table 8; 3 μM ATP; read-out: Aurora-2 Inhibition, IC50
T1 construct: purchased Upstate, Lake Placid, N.Y; host or cells: sf9 cells
T1 sequence (O14965 1-403): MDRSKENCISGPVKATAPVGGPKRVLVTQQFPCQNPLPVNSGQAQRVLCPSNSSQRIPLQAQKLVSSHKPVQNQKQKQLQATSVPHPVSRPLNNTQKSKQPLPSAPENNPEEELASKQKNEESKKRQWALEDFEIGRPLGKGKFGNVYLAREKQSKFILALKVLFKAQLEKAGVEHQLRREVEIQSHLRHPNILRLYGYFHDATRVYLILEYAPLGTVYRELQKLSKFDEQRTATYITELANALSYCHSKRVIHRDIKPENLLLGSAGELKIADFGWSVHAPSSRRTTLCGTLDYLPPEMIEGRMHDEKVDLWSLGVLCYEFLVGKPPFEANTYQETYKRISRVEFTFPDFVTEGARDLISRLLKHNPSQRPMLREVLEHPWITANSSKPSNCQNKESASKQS
Procedure: (§1) In this assay kinase activity was determined by quantifying the amount of ATP remaining in solution following a kinase reaction by measuring the light units (LU) produced by luciferase using a luminometer. Percent inhibition was determined for individual compounds by comparing luminometer readings of drug-treated reactions to controls containing no drug (DMSO control) and no Aurora-2 enzyme (ATP control) in the following equation: […]
(§2) In a 50 μl reaction, recombinant aurora-2 kinase produced in sf9 cells (Upstate, Lake Placid, N.Y.) was incubated at 30° C. for two hours with 62.5 μM Kemptide (Calbiochem, San Diego, Calif.), 3 μM ATP (Invitrogen, Carlsbad, Calif.) and kinase reaction buffer (40 mM Tris-HCl, 10 mM MgCl2 and 0.1 μg/μl bovine serum albumin (BSA)). This reaction was carried out in the presence of drug substances, which had been previously diluted to desired concentrations in DMSO. After incubation, 50 μl of Kinase-Glo® (Promega, Inc., Madison, Wis.) solution was added to each reaction mixture and allowed to equilibrate for 10 minutes at room temperature. Kinase-Glo solution contains luciferase enzyme and luciferin, which react with ATP to produce light. Kinase activity is determined by quantifying the amount of ATP remaining in solution following the kinase reaction by measuring the light units (LU) produced by luciferase using a luminometer (Thermo-Electron, Vantaa, Finland).
as §1, with “Briefly,” for “In this assay”
as §2, with “μg/Il” for “μg/μl”
as §1, with “Illustrative compounds 2-3, 2-5, 2-7, 2-4 and 2-9 were evaluated in an aurora-2 kinase inhibition assay. In” for “In”

[2] = test system: MDA-MB-231 breast carcinoma cells; experiment: cell proliferation assay (Cell-Titer-Glo), MDA-MB-231; format: cell-based; conditions: Homo sapiens, Example 65, 96 hours, read-out: IC50 (reduce cell number to 50% of untreated controls)
Procedure: Cell culture-based assays can be used to evaluate the ability of compounds of the invention to inhibit one or more cellular activities, such as cancer cell growth and/or survival. Numerous cancer cell lines can be obtained from the American Type Culture Collection (ATCC) and other sources. Briefly, cells are seeded into 96-well, tissue-culture treated, opaque white plates (Thermo Electron, Vantaa, Finland), at between 5000 and 10000 cells per well, depending on the speed of cell proliferation, in 100 μl of appropriate growth medium (determined by the ATCC). Cells are then exposed to the appropriate concentration of drug or an equal amount of DMSO (drug diluent) and allowed to grow in its presence for 96 hours. Following this, 100 μl of Cell-Titer-Glo reagent (Promega, Inc., Madison, Wis.) is added to each well. Plates are then shaken for 2 minutes at room temperature to allow for cell lysis and incubated for 10 minutes to stabilize the luminescent signal. Similar to the Kinase-Glo assay reagent from Promega, this reagent contains both luciferase enzyme and its substrate luciferin. Luciferase, activated by ATP in the cell lysate, catalyzes the conversion of luciferin to oxyluciferin, a reaction which produces light. The amount of light produced is proportionate to the amount of ATP in the cell lysate, which is itself proportional to cell number and gives an index of cellular proliferation.
Compound 1-1 and Compound 2-11 were tested in a cell proliferation assay to determine potency in a cell-based assay format. Briefly, MDA-MB-231 breast carcinoma cells were inoculated onto 96-well plates and incubated in the presence of compounds for 96 hours. Following incubation, cells were lysed and ATP content used as a surrogate for cell number, using the Cell-Titer-Glo Luminescent Cell Viability Assay Kit (Promega Corp.). IC50 values, representing the concentration required to reduce cell number to 50% of untreated controls, were determined to be 20 uM for Compound 1-1 and 10 uM for Compound 2-11.

[3] = target: T2, phosphorylated Axl in MDA-MB-231 breast carcinoma cells (Homo sapiens, UniProt P30530); experiment: Axl autophosphorylation sandwich ELISA in cells; format: cell-based; conditions: 10 uM, 48 hours
T2 construct: endogenous in cells; host or cells: MDA-MB-231 breast carcinoma cells
T2 sequence (P30530 26-894): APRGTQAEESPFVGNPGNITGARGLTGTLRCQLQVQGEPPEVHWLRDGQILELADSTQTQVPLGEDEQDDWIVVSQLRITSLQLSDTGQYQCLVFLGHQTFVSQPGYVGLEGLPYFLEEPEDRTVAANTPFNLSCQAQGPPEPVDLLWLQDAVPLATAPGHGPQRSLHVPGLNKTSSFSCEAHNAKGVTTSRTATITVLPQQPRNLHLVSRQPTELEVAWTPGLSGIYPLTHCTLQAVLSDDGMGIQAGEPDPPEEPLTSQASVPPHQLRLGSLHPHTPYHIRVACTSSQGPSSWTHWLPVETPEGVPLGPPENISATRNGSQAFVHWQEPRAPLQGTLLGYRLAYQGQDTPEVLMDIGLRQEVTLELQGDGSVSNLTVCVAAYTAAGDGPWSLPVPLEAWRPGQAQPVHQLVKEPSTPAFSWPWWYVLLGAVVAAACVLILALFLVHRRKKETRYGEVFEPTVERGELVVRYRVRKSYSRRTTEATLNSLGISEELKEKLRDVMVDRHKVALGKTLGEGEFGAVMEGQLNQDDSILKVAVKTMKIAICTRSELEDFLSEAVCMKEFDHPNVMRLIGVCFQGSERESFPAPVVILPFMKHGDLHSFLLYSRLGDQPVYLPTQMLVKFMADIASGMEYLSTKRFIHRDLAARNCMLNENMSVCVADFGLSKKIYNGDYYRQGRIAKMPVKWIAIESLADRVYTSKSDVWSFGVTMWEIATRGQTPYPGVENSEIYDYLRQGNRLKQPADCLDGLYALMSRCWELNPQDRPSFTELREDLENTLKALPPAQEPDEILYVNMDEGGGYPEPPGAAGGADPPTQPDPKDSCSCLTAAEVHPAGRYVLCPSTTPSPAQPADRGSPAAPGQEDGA
Procedure: Compound 2-11 was examined in a cell-based assay to determine its ability to reduce the activity of the Axl kinase enzyme in cell culture. Axl, like many receptor tyrosine kinases, autophosphorylates in response to growth factor stimulation. Briefly, MDA-MB-231 breast carcinoma cells were plated in 25 cm^2 tissue culture flasks and incubated in the presence of varying concentrations of Compound 2-11 for 48 hours. Following incubation, cells were lysed and the presence of phosphorylated Axl was detected using a commercially available sandwich ELISA assay kit (R&D Systems Inc.). […] For example, at concentrations as low as 10 uM, levels of phosphorylated Axl were reduced to less than 50% of those observed for untreated control samples.

[4] = test system: Granta-4 lymphoma cell line; experiment: lymphoma cell number reduction, Granta-4; format: cell-based; conditions: 48 hours; read-out: IC50 Values Granta-4, single agent
Procedure: (§3) New IC50 values were calculated for the second agent in an effort to determine whether or not pretreatment with one compound would increase sensitivity to the other. As set forth in the table below, compound 2-3 pretreatment led to an increased sensitivity to Taxol®, however Taxol® pretreatment appeared to be […] to compound 2-3 in this assay.

[5] = test system: Granta-22 lymphoma cell line; experiment: lymphoma cell number reduction, Granta-22; format: cell-based; conditions: 48 hours; read-out: IC50 Values Granta-22, single agent
Procedure: as §3

COc1cc2[nH]c3ncnc(N4CCN(C(=S)Nc5ccc(S(=O)(=O)Nc6ccc(C(F)(F)F)cc6)cc5)CC4)c3c2cc1OC [Compound 2-4, 4-(6,7-dimethoxy-9H-pyrimido[4,5-b]indol-4-yl)-N-(4-(N-(4-trifluoronethylhenyl)sulfamoyl)phenyl)piperazine-1-carbothioamide]
IC50 [1]: 0.153 µM

CCc1nnc(NS(=O)(=O)c2ccc(NC(=S)N3CCN(c4ncnc5[nH]c6ccc(Cl)cc6c45)CC3)cc2)s1 [Compound 2-11]
IC50 [2]: 10 µM | levels of phosphorylated Axl relative to untreated control samples [3]: less than 50%

CC(=O)O[C@H]1C(=O)[C@@]2(C)[C@H]([C@H](OC(=O)c3ccccc3)[C@]3(O)C[C@H](OC(=O)[C@H](O)[C@@H](NC(=O)c4ccccc4)c4ccccc4)C(C)=C1C3(C)C)[C@]1(OC(C)=O)CO[C@@H]1C[C@@H]2O [Taxol ®, reference compound]
IC50 [4]: 0.301 µM | IC50 [5]: 2.72 µM
